Patent US11779602B2, “Methods of use for CAR T cells” (ENDOCYTE, INC., priority 2018, dated 2023)

What was measured:
[1] = system: target cells expressing surface folate receptor (OV90, SKOV3, IGROV1, HOS-FRα, MDA-MB-231); test: Two day co-culture target cell kill assay (Annexin V); assay type: cell-based, human; settings: 100 nM EC17 30 min pre-treatment, E:T 1:1, two days
Procedure: On day −1, 100,000 target cells were plated in 2 ml of growth media per well of a 12-well tissue culture plate to allow target cells to adhere and recover. On day 0, wells which received EC17 bridge molecule were treated with EC17 at 100 nM for 30 min in the tissue culture incubator. Afterwards, all media was washed off and replaced with fresh growth media free of folate and EC17. During the EC17 incubation, T cells were harvested, counted and after EC17 treatment was completed, 100,000 E2 CAR T cells were directly added onto each well of target cells in a total of 3 ml of growth media at a ratio of 1:1 (E:T) and incubated for both 1 and 2 days under standard tissue culture humidified conditions of 37° C. at 5% CO2. One day co-culture conditions were used to assay E2 CAR T cell activation by target cells and two-day incubation was used to assay target cell death. […]
To confirm that E2 CAR T cell activation also translates to successful killing of the target cells we performed a two-day co-culture assay then looked at target cell (EGFR-CD3-) events via flow cytometry and determined the percentage of target cell staining with the apoptotic surface marker, Annexin V stain. […]

[2] = system: FR+ tumor cell targets (MDA-MB-231, THP1-FRβ, HOS-FRα); test: CAR-T cell activation markers (CD69, CD137, PD1) in co-culture with EC17-preloaded targets; assay type: cell-based, human; settings: E/T 1:1, 24 hours
Procedure: To study CAR-T cell activation in the presence of FR+ tumor cell targets (FIGS. 53A-D), co-culture experiments were initially carried out with MDA-MB-231, THP1-FRβ and HOS-FRα. […] After 24 hours of co-culture, the surface expression of T cell activation markers CD69, CD137 (4-1BB), and PD1 were analyzed by flow cytometry. For T cell exhaustion studies (FIGS. 54A-C), FR+ (KB, MDA-MB-231, HOS-FRα^fLuc, THP1-FRβ) and FR-negative (HOS-143b^fLuc, THP1-FG12) tumor cell lines were used as targets. Here, target cells were incubated on day 0 without or with 0.1 and 10 nM of EC17 for 30 min at 37° C. and the status of EC17 “pre-loading” was assessed by counterstaining cell-surface EC17 with an anti-FITC antibody (FIG. 61A). Three days later, the surface expression of PD1, LAG3, and TIM3 inhibitor receptors on co-cultured CAR-T cells were analyzed and higher frequencies of double- and triple-positive cells were considered approaching an exhausted phenotype.
To examine antigen-dependent CAR-T cell activation, MDA-MB-231, THP1-FRβ and HOS-FRα cells were preloaded with 100 nM EC17 over 30 min. […] After 24 hours of co-culture, we measured the surface expression of T cell activation markers CD69, CD137 (4-1BB) and PD1 (FIGS. 53A-D). […] Three days later, co-cultured CAR-T cells were measured for upregulation and co-expression of T cell activation/exhaustion markers PD1, LAGS and TIM3. […]

NC1=NC2N=CC(CNc3ccc(C(=O)N[C@@H](CCC(=O)NCCNC(=S)Nc4ccc(-c5c6ccc(=O)cc-6oc6cc(O)ccc56)c(C(=O)O)c4)C(=O)O)cc3)=NC2C(=O)N1 (stereo partly drawn) [EC17, FA-(γ)-ethylenediamine-FITC]
requirement of EC17 binding for target cell kill [1]: required for cell kill
CAR-T cell activation (CD69, CD137, PD1) ([2]; MDA-MB-231 and HOS-FRα preloaded with 100 nM EC17 30 min): strong activators
CAR-T cell activation (CD69, CD137, PD1) ([2]; THP1-FRβ preloaded with 100 nM EC17 30 min): did trigger CAR-T cell activation, but at lower levels
